# Tests used:
# [1] = target: Voltage-gated inwardly rectifying potassium channel KCNH2 (Homo sapiens, UniProt Q12809); assay type: functional
# Glucocorticoid receptor = target: T1, Glucocorticoid receptor (Homo sapiens, UniProt P04150)
# T1 sequence (P04150 whole entry): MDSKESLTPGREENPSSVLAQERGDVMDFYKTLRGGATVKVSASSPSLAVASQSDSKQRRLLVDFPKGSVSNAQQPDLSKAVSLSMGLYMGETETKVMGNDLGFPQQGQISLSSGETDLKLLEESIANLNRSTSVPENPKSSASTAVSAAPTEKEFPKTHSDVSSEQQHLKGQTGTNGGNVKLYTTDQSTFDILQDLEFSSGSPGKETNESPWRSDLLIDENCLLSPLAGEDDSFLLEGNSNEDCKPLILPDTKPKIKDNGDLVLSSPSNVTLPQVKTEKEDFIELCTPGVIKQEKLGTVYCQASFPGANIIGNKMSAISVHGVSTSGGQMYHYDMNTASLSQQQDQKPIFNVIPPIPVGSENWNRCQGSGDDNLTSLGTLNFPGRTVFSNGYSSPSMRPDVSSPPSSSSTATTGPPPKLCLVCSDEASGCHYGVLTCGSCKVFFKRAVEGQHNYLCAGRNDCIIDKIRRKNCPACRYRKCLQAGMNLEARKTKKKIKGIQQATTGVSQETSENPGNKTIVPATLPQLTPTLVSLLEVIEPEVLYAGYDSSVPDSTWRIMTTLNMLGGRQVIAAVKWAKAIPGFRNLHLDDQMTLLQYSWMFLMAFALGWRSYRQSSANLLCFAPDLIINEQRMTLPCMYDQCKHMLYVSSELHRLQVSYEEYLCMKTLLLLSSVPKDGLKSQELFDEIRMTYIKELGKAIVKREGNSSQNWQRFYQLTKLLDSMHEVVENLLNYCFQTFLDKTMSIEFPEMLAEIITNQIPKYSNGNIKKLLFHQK
# Histamine H2 receptor = Histamine H2 receptor (Homo sapiens, UniProt P25021); assay type: functional, cell-based
# [2] = target: T2, Amine oxidase [flavin-containing] A (Homo sapiens, UniProt P21397); assay type: functional
# T2 sequence (P21397 whole entry): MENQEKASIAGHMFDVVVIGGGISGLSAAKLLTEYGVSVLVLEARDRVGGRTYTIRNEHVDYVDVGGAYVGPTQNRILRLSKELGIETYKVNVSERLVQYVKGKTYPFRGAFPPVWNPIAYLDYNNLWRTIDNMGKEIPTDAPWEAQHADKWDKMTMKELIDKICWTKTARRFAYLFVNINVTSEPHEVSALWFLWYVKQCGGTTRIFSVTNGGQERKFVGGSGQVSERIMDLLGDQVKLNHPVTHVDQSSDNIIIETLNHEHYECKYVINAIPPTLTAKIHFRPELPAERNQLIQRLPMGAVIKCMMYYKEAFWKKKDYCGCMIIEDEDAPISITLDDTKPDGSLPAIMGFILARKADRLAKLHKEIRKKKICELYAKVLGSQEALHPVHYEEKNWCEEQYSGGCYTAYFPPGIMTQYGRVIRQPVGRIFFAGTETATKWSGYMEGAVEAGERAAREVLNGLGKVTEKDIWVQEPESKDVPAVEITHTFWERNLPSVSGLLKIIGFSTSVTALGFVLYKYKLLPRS
# Thromboxane A2 receptor = target: T3, Thromboxane A2 receptor (Homo sapiens, UniProt P21731)
# T3 sequence (P21731 whole entry): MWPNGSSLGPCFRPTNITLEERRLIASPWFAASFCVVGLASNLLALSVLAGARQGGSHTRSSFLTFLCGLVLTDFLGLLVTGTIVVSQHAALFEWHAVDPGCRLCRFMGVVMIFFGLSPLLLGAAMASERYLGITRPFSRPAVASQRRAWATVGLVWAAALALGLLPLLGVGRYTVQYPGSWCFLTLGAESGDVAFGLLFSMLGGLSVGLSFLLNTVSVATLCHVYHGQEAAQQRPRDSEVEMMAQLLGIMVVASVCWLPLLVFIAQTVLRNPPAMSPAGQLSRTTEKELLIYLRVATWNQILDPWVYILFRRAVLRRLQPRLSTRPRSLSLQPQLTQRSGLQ
# [3] = target: T4, Alpha-1A adrenergic receptor (Homo sapiens, UniProt P35348); assay type: functional, cell-based
# T4 sequence (P35348 whole entry): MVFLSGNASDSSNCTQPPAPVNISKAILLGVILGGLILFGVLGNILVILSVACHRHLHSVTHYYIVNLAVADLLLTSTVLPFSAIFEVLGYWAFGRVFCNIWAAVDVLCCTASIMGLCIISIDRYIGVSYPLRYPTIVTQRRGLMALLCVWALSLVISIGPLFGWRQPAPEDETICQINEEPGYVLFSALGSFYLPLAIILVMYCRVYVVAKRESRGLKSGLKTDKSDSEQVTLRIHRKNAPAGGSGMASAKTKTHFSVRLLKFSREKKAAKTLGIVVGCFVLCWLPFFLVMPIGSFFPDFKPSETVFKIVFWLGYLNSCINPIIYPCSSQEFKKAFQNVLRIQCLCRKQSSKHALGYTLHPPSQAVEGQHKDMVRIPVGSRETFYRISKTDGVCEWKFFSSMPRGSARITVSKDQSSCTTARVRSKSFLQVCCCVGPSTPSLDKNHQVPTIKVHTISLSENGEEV
# [4] = target: T5, Alpha-2A adrenergic receptor (Homo sapiens, UniProt P08913); assay type: functional, cell-based
# T5 sequence (P08913 whole entry): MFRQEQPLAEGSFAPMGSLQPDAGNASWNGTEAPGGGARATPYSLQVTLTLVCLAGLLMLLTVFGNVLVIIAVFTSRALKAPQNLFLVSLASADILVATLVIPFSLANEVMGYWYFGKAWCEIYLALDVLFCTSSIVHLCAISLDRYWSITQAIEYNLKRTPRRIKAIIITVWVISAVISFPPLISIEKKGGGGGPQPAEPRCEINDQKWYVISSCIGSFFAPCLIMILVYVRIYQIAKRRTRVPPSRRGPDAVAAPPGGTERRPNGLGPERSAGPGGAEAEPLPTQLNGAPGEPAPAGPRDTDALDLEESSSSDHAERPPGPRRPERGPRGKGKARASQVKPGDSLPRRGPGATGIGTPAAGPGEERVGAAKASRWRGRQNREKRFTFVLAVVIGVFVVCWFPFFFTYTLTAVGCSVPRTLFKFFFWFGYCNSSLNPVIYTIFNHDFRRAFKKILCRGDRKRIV
# [5] = target: Glutamate receptor ionotropic, NMDA 1 (Rattus norvegicus, UniProt P35439)
# Note: assay procedure not described here.
# Chain of Voltage-gated inwardly rectifying potassium channel KCNH2 (Q12809 whole entry): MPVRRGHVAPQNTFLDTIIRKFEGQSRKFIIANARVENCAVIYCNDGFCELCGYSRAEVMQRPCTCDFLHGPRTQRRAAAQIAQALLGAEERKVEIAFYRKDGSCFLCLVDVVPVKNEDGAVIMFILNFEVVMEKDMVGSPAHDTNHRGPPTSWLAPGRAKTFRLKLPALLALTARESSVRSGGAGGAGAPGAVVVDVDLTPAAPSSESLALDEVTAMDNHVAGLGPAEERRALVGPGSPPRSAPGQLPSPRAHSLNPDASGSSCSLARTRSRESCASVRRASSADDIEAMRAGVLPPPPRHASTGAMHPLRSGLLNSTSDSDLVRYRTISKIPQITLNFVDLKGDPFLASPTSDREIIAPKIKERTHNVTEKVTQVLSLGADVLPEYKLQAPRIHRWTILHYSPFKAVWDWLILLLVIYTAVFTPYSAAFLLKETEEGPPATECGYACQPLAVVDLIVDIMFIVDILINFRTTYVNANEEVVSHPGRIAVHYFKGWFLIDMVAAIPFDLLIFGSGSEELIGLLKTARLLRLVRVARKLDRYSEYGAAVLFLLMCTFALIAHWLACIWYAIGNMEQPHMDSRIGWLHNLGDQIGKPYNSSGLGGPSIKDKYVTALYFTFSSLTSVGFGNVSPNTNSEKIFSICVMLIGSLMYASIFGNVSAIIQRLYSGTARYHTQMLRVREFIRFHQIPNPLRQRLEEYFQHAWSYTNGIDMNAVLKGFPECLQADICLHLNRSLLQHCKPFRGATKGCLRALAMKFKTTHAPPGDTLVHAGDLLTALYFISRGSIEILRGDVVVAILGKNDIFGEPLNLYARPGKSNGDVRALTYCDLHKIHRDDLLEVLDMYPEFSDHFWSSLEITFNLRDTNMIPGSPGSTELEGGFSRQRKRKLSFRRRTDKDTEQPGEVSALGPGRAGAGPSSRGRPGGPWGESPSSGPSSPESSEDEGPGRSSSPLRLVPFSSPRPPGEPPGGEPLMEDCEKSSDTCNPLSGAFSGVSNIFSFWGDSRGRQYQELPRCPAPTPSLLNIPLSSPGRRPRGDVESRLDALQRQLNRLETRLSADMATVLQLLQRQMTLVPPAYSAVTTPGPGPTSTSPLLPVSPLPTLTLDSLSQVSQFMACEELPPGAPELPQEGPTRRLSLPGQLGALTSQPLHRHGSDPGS
# Chain of Histamine H2 receptor (P25021 whole entry): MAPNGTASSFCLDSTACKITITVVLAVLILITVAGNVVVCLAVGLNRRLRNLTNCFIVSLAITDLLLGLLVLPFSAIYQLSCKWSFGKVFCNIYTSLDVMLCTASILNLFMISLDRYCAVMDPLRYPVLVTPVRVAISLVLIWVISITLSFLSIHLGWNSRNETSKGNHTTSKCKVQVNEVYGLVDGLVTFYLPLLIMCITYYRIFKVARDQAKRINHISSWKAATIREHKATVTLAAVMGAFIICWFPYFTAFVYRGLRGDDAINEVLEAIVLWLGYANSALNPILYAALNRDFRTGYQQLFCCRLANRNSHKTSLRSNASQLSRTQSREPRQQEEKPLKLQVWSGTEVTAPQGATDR
AC50 (Glucocorticoid receptor) [µM],AC50 (Histamine H2 receptor) [µM],AC50 [2] [µM],AC50 (Thromboxane A2 receptor) [µM],AC50 [3] [µM],AC50 [4] [µM],AC50 [5] [µM],Compound,AC50 [1] [µM]
> 30,> 30,> 30,28,> 30,> 30,> 30,CC(C)N(CCCCOCC(=O)O)c1cnc(-c2ccccc2)c(-c2ccccc2)n1,> 30
> 30,> 30,> 30,> 30,> 30,,> 30,O=C(CCCN1CCC(O)(c2ccc(Br)cc2)CC1)c1ccc(F)cc1 [BROMPERIDOL],0.23
18,> 30,> 30,> 30,> 30,> 30,> 30,Clc1ccc(CCC(Cn2ccnc2)Sc2c(Cl)cccc2Cl)cc1 (configuration not stated) [BUTOCONAZOLE],5.9
> 30,> 30,> 30,,> 30,> 30,,CO/N=C(\C(=O)N[C@@H]1C(=O)N2C(C(=O)O)=CCS[C@H]12)c1csc(N)n1 [CEFTIZOXIME],> 30
> 30,> 10,> 10,22.9,> 30,,> 10,COc1cc(N)c(Cl)cc1C(=O)NC1CCN(CCCOc2ccc(F)cc2)CC1OC (configuration not stated) [CISAPRIDE],
> 30,> 10,> 10,> 30,> 30,> 10,> 10,CCOC(=O)C(C)(C)Oc1ccc(Cl)cc1 [CLOFIBRATE],> 30

# The remaining lines, values behind:
Compound,AC50 (Glucocorticoid receptor) [µM],AC50 (Histamine H2 receptor) [µM],AC50 [2] [µM],AC50 (Thromboxane A2 receptor) [µM],AC50 [3] [µM],AC50 [4] [µM],AC50 [5] [µM],AC50 [1] [µM]
C[N+]12CCC(CC1)C(OC(=O)C(O)(c1ccccc1)c1ccccc1)C2 (configuration not stated),> 30,> 30,> 30,> 30,> 30,> 30,> 30,1.3
CC(=O)c1ccc(S(=O)(=O)NC(=O)NC2CCCCC2)cc1 [ACETOHEXAMIDE],> 10,> 10,> 10,> 10,> 30,> 30,> 10,> 30
COc1cc(C)c(/C=C/C(C)=C/C=C/C(C)=C/C(=O)O)c(C)c1C [ACITRETIN],> 30,> 10,> 10,> 10,> 30,> 10,> 10,> 30
CO/N=C(\C(=O)N[C@@H]1C(=O)N2C(C(=O)O)=C(CSc3nc(=O)c(=O)[nH]n3C)CS[C@H]12)c1csc(N)n1 [CEFTRIAXONE],> 30,> 30,> 30,,> 30,> 30,> 30,> 30
CC(CN(C)C)C(C)(O)Cc1ccc(Cl)cc1 (configuration not stated) [CLOBUTINOL],> 30,> 10,> 10,> 30,> 30,> 10,> 10,8.45
